In US11691962B2 (eXIthera Pharmaceuticals, Inc., priority 2018, dated 2023):

Biological target: Factor XIa (Homo sapiens (Human), UniProt P03951)
Test: Factor XIa enzyme inhibition assay (dose response, fluorogenic AMC substrate)
Type: biochemical
Conditions: read-out: hFXIa IC50
Procedure, shortened: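 Fluorogenic progress curves (30 min, 1-min reads, 30° C) were recorded for 0.25 nM FXIa cleaving 50 μM Glp-Pro-Arg-AMC in Hepes pH 7.4 buffer with NaCl and Tween 20. Compounds were serially two-fold diluted, and IC50 was fitted with a Hill equation.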

Sequence of Factor XIa (P03951 388-625): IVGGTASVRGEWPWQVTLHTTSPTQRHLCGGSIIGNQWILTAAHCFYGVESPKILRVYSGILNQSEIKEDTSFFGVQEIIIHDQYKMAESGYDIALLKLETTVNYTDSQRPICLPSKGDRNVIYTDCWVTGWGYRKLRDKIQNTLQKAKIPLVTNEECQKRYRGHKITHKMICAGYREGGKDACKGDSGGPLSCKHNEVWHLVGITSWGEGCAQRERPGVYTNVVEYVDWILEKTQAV
Sequence of Factor XIa (P03951 19-387 partner): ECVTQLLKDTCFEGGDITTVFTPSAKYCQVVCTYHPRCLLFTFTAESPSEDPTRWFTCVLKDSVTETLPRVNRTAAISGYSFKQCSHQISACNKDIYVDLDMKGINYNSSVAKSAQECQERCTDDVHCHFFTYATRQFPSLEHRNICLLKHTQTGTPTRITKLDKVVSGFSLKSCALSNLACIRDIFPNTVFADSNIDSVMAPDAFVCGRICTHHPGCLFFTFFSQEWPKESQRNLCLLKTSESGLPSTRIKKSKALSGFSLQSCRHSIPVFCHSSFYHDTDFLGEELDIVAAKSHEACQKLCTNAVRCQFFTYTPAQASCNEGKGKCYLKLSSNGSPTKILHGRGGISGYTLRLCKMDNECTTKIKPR

Row | SMILES | IC50 [nM]
1 | CC[C@@H](NC(=O)N1C(=O)[C@H](Cc2cc(C)nc(N)c2)[C@H]1C(=O)N(C)c1ccnn1C)c1ccc(F)cc1C [Compound 1-159, (2S,3R)-3-((2-amino-6-methylpyridin-4-yl)methyl)-N2-(1-methyl-1H-pyrazol-5-yl)-N1-((R)-1-(4-fluoro-2-methylhenyl)propyl)-N2-methyl-4-oxoazetidine-1,2-dicarboxamide] | < 10
2 | CC[C@@H](NC(=O)N1C(=O)[C@H](Cc2cc(C)nc(N)c2)[C@H]1C(=O)N(C)c1ccnn1C)c1ccc(C)cc1F [Compound 1-160, (2S,3R)-3-((2-amino-6-methylpyridin-4-yl)methyl)-N2-(1-methyl-1H-pyrazol-5-yl)-N1-((R)-1-(2-fluoro-4-methylphenyl)propyl)-N2-methyl-4-oxoazetidine-1,2-dicarboxamide] | < 10
3 | CC[C@@H](NC(=O)N1C(=O)[C@H](Cc2cc(C)nc(N)c2)[C@H]1C(=O)N(C)c1ccnn1C)c1ccc(C)cc1C [Compound 1-161, (2S,3R)-3-((2-amino-6-methylpyridin-4-yl)methyl)-N2-(1-methyl-1H-pyrazol-5-yl)-N1-((R)-1-(2,4-dimethylphenyl)propyl)-N2-methyl-4-oxoazetidine-1,2-dicarboxamide] | < 10
4 | CC[C@@H](NC(=O)N1C(=O)[C@H](Cc2cc(C)nc(N)c2)[C@H]1C(=O)N(C)c1ccnn1C)c1cc(C)ccc1F [Compound 1-164, (2S,3R)-3-((2-amino-6-methylpyridin-4-yl)methyl)-N2-(1-methyl-1H-pyrazol-5-yl)-N1-((R)-1-(2-fluoro-5-methylphenyl)propyl)-N2-methyl-4-oxoazetidine-1,2-dicarboxamide] | < 10
5 | CC[C@@H](NC(=O)N1C(=O)[C@H](Cc2ccnc(N)c2)[C@H]1C(=O)N(C)c1nncn1C)c1ccccc1 [Compound 1-165, (2S,3R)-3-((2-aminopyridin-4-yl)methyl)-N2-(4-methyl-4H-1,2,4-triazol-3-yl)-N1-((R)-1-phenylpropyl)-N2-methyl-4-oxoazetidine-1,2-dicarboxamide] | 10 to 100
6 | CC[C@@H](NC(=O)N1C(=O)[C@H](Cc2cc(C)nc(N)c2)[C@H]1C(=O)N(C)c1ccnn1C)c1cc(C)ccc1C [Compound 1-166, (2S,3R)-3-((2-amino-6-methylpyridin-4-yl)methyl)-N2-(1-methyl-1H-pyrazol-5-yl)-N1-((R)-1-(2,5-dimethylphenyl)propyl)-N2-methyl-4-oxoazetidine-1,2-dicarboxamide] | < 10
7 | CC[C@@H](NC(=O)N1C(=O)[C@H](Cc2ccnc(N)c2)[C@H]1C(=O)N(C)c1nnco1)c1ccccc1 [Compound 1-167, (2S,3R)-3-((2-aminopyridin-4-yl)methyl)-N2-(1,3,4-oxadiazol-2-yl)-N1-((R)-1-phenylpropyl)-N2-methyl-4-oxoazetidine-1,2-dicarboxamide] | < 10
8 | CC[C@@H](NC(=O)N1C(=O)[C@H](Cc2ccnc(N)c2)[C@H]1C(=O)N(C)c1nncs1)c1ccccc1 [Compound 1-168, (2S,3R)-3-((2-aminopyridin-4-yl)methyl)-N2-(1,3,4-thiadiazol-2-yl)-N1-((R)-1-phenylpropyl)-N2-methyl-4-oxoazetidine-1,2-dicarboxamide] | < 10
9 | CC[C@@H](NC(=O)N1C(=O)[C@H](Cc2cc(C)nc(N)c2)[C@H]1C(=O)N(C)c1cnn(C)c1)c1ccc(F)cc1 [Compound 1-169, (2S,3R)-3-((2-amino-6-methylpyridin-4-yl)methyl)-N2-(1-methyl-1H-pyrazol-4-yl)-N1-((R)-1-(4-fluorophenyl)propyl)-N2-methyl-4-oxoazetidine-1,2-dicarboxamide] | 10 to 100
10 | CC[C@@H](NC(=O)N1C(=O)[C@H](Cc2cc(C)nc(N)c2)[C@H]1C(=O)N(C)c1cnn(C)c1)c1ccc(Cl)cc1 [Compound 1-170, (2S,3R)-3-((2-amino-6-methylpyridin-4-yl)methyl)-N2-(1-methyl-1H-pyrazol-4-yl)-N1-((R)-1-(4-chlorophenyl)propyl)-N2-methyl-4-oxoazetidine-1,2-dicarboxamide] | 10 to 100
11 | CC[C@@H](NC(=O)N1C(=O)[C@H](Cc2cc(C)nc(N)c2)[C@H]1C(=O)N(C)c1cnn(C)c1)c1ccc(F)c(C)c1 [Compound 1-171, (2S,3R)-3-((2-amino-6-methylpyridin-4-yl)methyl)-N2-(1-methyl-1H-pyrazol-4-yl)-N1-((R)-1-(4-fluoro-3-methylphenyl)propyl)-N2-methyl-4-oxoazetidine-1,2-dicarboxamide] | 10 to 100
12 | CC[C@@H](NC(=O)N1C(=O)[C@H](Cc2cc(C)nc(N)c2)[C@H]1C(=O)N(C)c1cnn(C)c1)c1ccc(C)c(F)c1 [Compound 1-172, (2S,3R)-3-((2-amino-6-methylpyridin-4-yl)methyl)-N2-(1-methyl-1H-pyrazol-4-yl)-N1-((R)-1-(3-fluoro-4-methylphenyl)propyl)-N2-methyl-4-oxoazetidine-1,2-dicarboxamide] | < 10

The remaining lines, values ahead:

Row | IC50 [nM] | SMILES
13 | 10 to 100 | CC[C@@H](NC(=O)N1C(=O)[C@H](Cc2cc(C)nc(N)c2)[C@H]1C(=O)N(C)c1cnn(C)c1)c1cccc(C)c1C [Compound 1-173, (2S,3R)-3-((2-amino-6-methylpyridin-4-yl)methyl)-N2-(1-methyl-1H-pyrazol-4-yl)-N1-((R)-1-(2,3-dimethylphenyl)propyl)-N2-methyl-4-oxoazetidine-1,2-dicarboxamide]
14 | 10 to 100 | CC[C@@H](NC(=O)N1C(=O)[C@H](Cc2cc(C)nc(N)c2)[C@H]1C(=O)N(C)c1cnn(C)c1)c1cccc(F)c1F [Compound 1-174, (2S,3R)-3-((2-amino-6-methylpyridin-4-yl)methyl)-N2-(1-methyl-1H-pyrazol-4-yl)-N1-((R)-1-(2,3-difluorophenyl)propyl)-N2-methyl-4-oxoazetidine-1,2-dicarboxamide]
15 | < 10 | CC[C@@H](NC(=O)N1C(=O)[C@H](Cc2cc(C)nc(N)c2)[C@H]1C(=O)N(C)c1cnn(C)c1)c1ccc(C)c(C)c1 [Compound 1-175, (2S,3R)-3-((2-amino-6-methylpyridin-4-yl)methyl)-N2-(1-methyl-1H-pyrazol-4-yl)-N1-((R)-1-(3,4-dimethylphenyl)propyl)-N2-methyl-4-oxoazetidine-1,2-dicarboxamide]
16 | 10 to 100 | CC[C@@H](NC(=O)N1C(=O)[C@H](Cc2cc(C)nc(N)c2)[C@H]1C(=O)N(C)c1cnn(C)c1)c1cc(C)ccc1C [Compound 1-176, (2S,3R)-3-((2-amino-6-methylpyridin-4-yl)methyl)-N2-(1-methyl-1H-pyrazol-4-yl)-N1-((R)-1-(2,5-dimethylphenyl)propyl)-N2-methyl-4-oxoazetidine-1,2-dicarboxamide]
17 | 10 to 100 | CC[C@@H](NC(=O)N1C(=O)[C@H](Cc2cc(C)nc(N)c2)[C@H]1C(=O)N(C)c1cnn(C)c1)c1cc(C)ccc1F [Compound 1-177, (2S,3R)-3-((2-amino-6-methylpyridin-4-yl)methyl)-N2-(1-methyl-1H-pyrazol-4-yl)-N1-((R)-1-(2-fluoro-5-methylphenyl)propyl)-N2-methyl-4-oxoazetidine-1,2-dicarboxamide]
18 | < 10 | CC[C@@H](NC(=O)N1C(=O)[C@H](Cc2cc(C)nc(N)c2)[C@H]1C(=O)N(C)c1cnn(C)c1)c1cc(F)ccc1C [Compound 1-178, (2S,3R)-3-((2-amino-6-methylpyridin-4-yl)methyl)-N2-(1-methyl-1H-pyrazol-4-yl)-N1-((R)-1-(5-fluoro-2-methylphenyl)propyl)-N2-methyl-4-oxoazetidine-1,2-dicarboxamide]
19 | < 10 | CC[C@@H](NC(=O)N1C(=O)[C@H](Cc2cc(C)nc(N)c2)[C@H]1C(=O)N(C)c1cnn(C)c1)c1ccc(C)cc1C [Compound 1-179, (2S,3R)-3-((2-amino-6-methylpyridin-4-yl)methyl)-N2-(1-methyl-1H-pyrazol-4-yl)-N1-((R)-1-(2,4-dimethylphenyl)propyl)-N2-methyl-4-oxoazetidine-1,2-dicarboxamide]
20 | 10 to 100 | CC[C@@H](NC(=O)N1C(=O)[C@H](Cc2cc(C)nc(N)c2)[C@H]1C(=O)N(C)c1cnn(C)c1)c1ccc(F)cc1C [Compound 1-180, (2S,3R)-3-((2-amino-6-methylpyridin-4-yl)methyl)-N2-(1-methyl-1H-pyrazol-4-yl)-N1-((R)-1-(4-fluoro-2-methylphenyl)propyl)-N2-methyl-4-oxoazetidine-1,2-dicarboxamide]
21 | 10 to 100 | CC[C@@H](NC(=O)N1C(=O)[C@H](Cc2cc(C)nc(N)c2)[C@H]1C(=O)N(C)c1cnn(C)c1)c1ccc(C)cc1 [Compound 1-181, (2S,3R)-3-((2-amino-6-methylpyridin-4-yl)methyl)-N2-(1-methyl-1H-pyrazol-4-yl)-N1-((R)-1-(4-methylphenyl)propyl)-N2-methyl-4-oxoazetidine-1,2-dicarboxamide]
22 | < 10 | CC[C@@H](NC(=O)N1C(=O)[C@H](Cc2cc(C)nc(N)c2)[C@H]1C(=O)N(C)c1cnn(C)c1)c1ccc(C)cc1F [Compound 1-183, (2S,3R)-3-((2-amino-6-methylpyridin-4-yl)methyl)-N2-(1-methyl-1H-pyrazol-4-yl)-N1-((R)-1-(2-fluoro-4-methylphenyl)propyl)-N2-methyl-4-oxoazetidine-1,2-dicarboxamide]
23 | < 10 | CC[C@@H](NC(=O)N1C(=O)[C@H](Cc2cc(C)nc(N)c2)[C@H]1C(=O)N(C)c1nncs1)c1ccccc1 [Compound 1-186, (2S,3R)-3-((2-amino-6-methylpyridin-4-yl)methyl)-N2-(1,3,4-thiadiazol-2-yl)-N1-((R)-1-phenylpropyl)-N2-methyl-4-oxoazetidine-1,2-dicarboxamide]
24 | < 10 | CC[C@@H](NC(=O)N1C(=O)[C@H](Cc2cc(C)nc(N)c2)[C@H]1C(=O)N(C)c1nnco1)c1ccccc1 [Compound 1-187, (2S,3R)-3-((2-amino-6-methylpyridin-4-yl)methyl)-N2-(1,3,4-oxadiazol-2-yl)-N1-((R)-1-phenylpropyl)-N2-methyl-4-oxoazetidine-1,2-dicarboxamide]
